Molecular target: T1, Nav1.7 (or SCN9A) channel; HEK cells stably transfected with hSCN9A (Homo sapiens, UniProt Q15858)
T1 construct: expressed in transfected cells
Assay: Nav1.7 block, PatchXpress 7000 automated whole-cell voltage clamp, estimated IC50 (EIC50)
Assay type: cell-based
Details: estimated IC50, PatchXpress platform

[1] = hSCN9A HEK cells, Examples 815-1040
[2] = hSCN9A HEK cells, Examples 283-814
[3] = hSCN9A HEK cells held at V1/2 of inactivation

T1 sequence (Q15858 whole entry): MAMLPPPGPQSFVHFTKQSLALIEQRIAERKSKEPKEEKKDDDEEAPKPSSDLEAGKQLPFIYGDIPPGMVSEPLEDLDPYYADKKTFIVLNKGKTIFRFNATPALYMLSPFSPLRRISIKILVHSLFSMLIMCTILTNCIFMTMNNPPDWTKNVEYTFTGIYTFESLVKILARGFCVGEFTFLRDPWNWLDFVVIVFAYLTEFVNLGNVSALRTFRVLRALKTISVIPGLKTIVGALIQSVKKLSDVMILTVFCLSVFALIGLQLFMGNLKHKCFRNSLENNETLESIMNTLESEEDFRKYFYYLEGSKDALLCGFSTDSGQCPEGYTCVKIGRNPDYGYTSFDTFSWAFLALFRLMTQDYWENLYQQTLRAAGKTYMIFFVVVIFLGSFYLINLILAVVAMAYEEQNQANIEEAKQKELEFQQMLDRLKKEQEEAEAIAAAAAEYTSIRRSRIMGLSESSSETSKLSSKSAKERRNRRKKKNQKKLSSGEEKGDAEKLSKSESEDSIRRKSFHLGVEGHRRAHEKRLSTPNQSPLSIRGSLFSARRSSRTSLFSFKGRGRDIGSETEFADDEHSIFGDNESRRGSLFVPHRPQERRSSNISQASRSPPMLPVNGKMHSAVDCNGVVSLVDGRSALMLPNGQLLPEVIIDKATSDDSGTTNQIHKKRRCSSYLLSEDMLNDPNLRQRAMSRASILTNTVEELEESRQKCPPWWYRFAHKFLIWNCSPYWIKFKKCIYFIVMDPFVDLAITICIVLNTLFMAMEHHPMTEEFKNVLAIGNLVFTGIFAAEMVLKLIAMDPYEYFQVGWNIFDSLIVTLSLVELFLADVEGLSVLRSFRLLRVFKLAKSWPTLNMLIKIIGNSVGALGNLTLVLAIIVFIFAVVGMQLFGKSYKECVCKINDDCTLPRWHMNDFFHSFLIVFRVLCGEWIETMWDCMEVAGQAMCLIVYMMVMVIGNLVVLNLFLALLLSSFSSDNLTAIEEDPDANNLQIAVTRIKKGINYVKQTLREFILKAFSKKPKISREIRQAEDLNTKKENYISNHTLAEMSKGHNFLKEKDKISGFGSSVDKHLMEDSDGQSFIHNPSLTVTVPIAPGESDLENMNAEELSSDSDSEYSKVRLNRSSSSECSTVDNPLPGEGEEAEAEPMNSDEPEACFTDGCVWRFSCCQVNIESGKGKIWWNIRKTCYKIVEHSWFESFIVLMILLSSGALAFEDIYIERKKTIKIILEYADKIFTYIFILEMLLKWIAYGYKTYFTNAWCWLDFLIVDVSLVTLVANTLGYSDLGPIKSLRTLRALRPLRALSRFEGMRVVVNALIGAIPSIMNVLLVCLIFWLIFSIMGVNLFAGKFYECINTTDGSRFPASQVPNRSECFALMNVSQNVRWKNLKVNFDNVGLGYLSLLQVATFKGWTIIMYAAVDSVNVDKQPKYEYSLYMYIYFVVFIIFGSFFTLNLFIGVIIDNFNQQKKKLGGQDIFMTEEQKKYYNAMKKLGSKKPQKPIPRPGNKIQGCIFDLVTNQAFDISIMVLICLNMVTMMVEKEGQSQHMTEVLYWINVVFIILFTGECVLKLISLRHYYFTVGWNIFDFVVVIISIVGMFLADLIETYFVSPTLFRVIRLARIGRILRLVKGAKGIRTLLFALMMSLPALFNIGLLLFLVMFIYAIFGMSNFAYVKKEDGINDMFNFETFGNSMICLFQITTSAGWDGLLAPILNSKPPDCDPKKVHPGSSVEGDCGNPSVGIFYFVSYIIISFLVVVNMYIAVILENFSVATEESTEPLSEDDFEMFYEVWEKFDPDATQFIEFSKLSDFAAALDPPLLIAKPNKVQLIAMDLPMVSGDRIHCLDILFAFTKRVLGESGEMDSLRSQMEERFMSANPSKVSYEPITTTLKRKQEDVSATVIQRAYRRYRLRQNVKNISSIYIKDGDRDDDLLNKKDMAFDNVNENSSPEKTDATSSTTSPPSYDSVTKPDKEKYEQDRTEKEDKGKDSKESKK

IC50 [2] [nM]	IC50 [3] [nM]	SMILES	also measured
–	–	O=S(=O)(Nc1ncns1)c1cc(Cl)c(Oc2ccc(OC(F)(F)F)cc2-c2ccnnc2)cc1F [Example 909, 5-chloro-2-fluoro-4-[2-pyridazin-4-yl-4-(trifluoromethoxy)phenoxy]-N-1,2,4-thiadiazol-5-ylbenzenesulfonamide]	IC50 [1]: 2.1 nM
–	–	Nc1nccc(-c2cc(Cl)ccc2Oc2cc(F)c(S(=O)(=O)Nc3ncns3)cc2F)n1 [Example 849, 4-[2-(2-aminopyrimidin-4-yl)-4-chlorophenoxy]-2,5-difluoro-N-1,2,4-thiadiazol-5-ylbenzenesulfonamide]	IC50 [1]: 120 nM
1600	–	Cc1cc(C(F)(F)F)nn1-c1cccc(Oc2ccc(S(=O)(=O)Nc3nccs3)cc2C#N)c1 [Example 650, 3-cyano-4-{3-[5-methyl-3-(trifluoromethyl)-1H-pyrazol-1-yl]phenoxy}-N-1,3-thiazol-2-ylbenzenesulfonamide]	–
>3000	–	Cc1nc(-c2cccc(Oc3ccc(S(=O)(=O)Nc4ccc(F)cn4)cc3C#N)c2)no1 [Example 574, 3-cyano-N-(5-fluoropyridin-2-yl)-4-[3-(5-methyl-1,2,4-oxadiazol-3-yl)phenoxy]benzenesulfonamide]	–
–	–	N#Cc1cc(S(=O)(=O)Nc2ncns2)ccc1Oc1cc(Cl)c(Cl)cc1-c1ccnnc1 [Example 971, 3-cyano-4-(4,5-dichloro-2-pyridazin-4-ylphenoxy)-N-1,2,4-thiadiazol-5-ylbenzenesulfonamide]	IC50 [1]: 8.5 nM
–	15100	O=S(=O)(Nc1nccs1)c1ccc(Oc2ccc(Oc3ccc(F)cc3)cc2)c(F)c1 [Example 124, 3-fluoro-4-[4-(4-fluorophenoxy)phenoxy]-N-1,3-thiazol-2-ylbenzenesulfonamide]	–
2600	–	N#Cc1cc(S(=O)(=O)Nc2nccs2)ccc1Oc1ccc(Oc2ccccc2)nc1 [Example 644, 3-cyano-4-[(6-phenoxypyridin-3-yl)oxy]-N-1,3-thiazol-2-ylbenzenesulfonamide]	–
–	>10000	O=S(=O)(Nc1cscn1)c1ccc(Oc2cc(C(F)(F)F)nn2-c2ccccc2)c(F)c1 [Example 274, 3-fluoro-4-(2-phenyl-5-trifluoromethyl-2H-pyrazol-3-yloxy)-N-thiazol-4-yl-benzenesulfonamide]	–
–	1130	Cc1c(Cl)ccc(Oc2ccc(S(=O)(=O)Nc3nccs3)cc2C#N)c1-c1nnco1 [Example 197, 4-(4-chloro-3-methyl-2-[1,3,4]oxadiazol-2-yl-phenoxy)-3-cyano-N-thiazol-2-yl-benzenesulfonamide]	–
740	–	CCn1cc(C(F)(F)F)nc1-c1ccc(Oc2ccc(S(=O)(=O)Nc3nccs3)cc2C#N)cc1 [Example 316, 3-cyano-4-{4-[1-ethyl-4-(trifluoromethyl)-1H-imidazol-2-yl]phenoxy}-N-1,3-thiazol-2-ylbenzenesulfonamide]	–
–	–	N#Cc1cc(S(=O)(=O)Nc2ncns2)ccc1Oc1ccc(Cl)cc1-c1cccc(C(=O)O)c1 [Example 1002, 5′-chloro-2′-{2-cyano-4-[(1,2,4-thiadiazol-5-ylamino)sulfonyl]phenoxy}biphenyl-3-carboxylic acid]	IC50 [1]: 140 nM
–	720	Cc1ccc(Oc2ccc(S(=O)(=O)Nc3ncns3)cc2C#N)c(-c2ccccc2)n1 [Example 12, 3-cyano-4-[(6-methyl-2-phenylpyridin-3-yl)oxy]-N-1,2,4-thiadiazol-5-ylbenzenesulfonamide]	–
–	3770	N#Cc1cc(S(=O)(=O)Nc2ncc(Cl)s2)ccc1Oc1ccccc1Oc1ccccc1 [Example 134, N-(5-chloro-1,3-thiazol-2-yl)-3-cyano-4-(2-phenoxyphenoxy)benzenesulfonamide]	–
4.8	–	Nc1[nH]ncc1-c1cc(Cl)ccc1Oc1cc(F)c(S(=O)(=O)Nc2ncns2)cc1Cl [Example 794, 4-[2-(5-amino-1H-pyrazol-4-yl)-4-chlorophenoxy]-5-chloro-2-fluoro-N-1,2,4-thiadiazol-5-ylbenzenesulfonamide]	–
–	110	Cn1nccc1-c1ccccc1Oc1ccc(S(=O)(=O)Nc2ncns2)cc1C#N [Example 70, 3-cyano-4-[2-(1-methyl-1H-pyrazol-5-yl)phenoxy]-N-1,2,4-thiadiazol-5-ylbenzenesulfonamide]	–
–	780	Cc1ccc(Oc2ccc(S(=O)(=O)Nc3ncns3)cc2C#N)c(-c2c(C)cnn2C)c1 [Example 27, 3-cyano-4-(2-(1,4-dimethyl-1H-pyrazol-5-yl)-4-methylphenoxy)-N-(1,2,4-thiadiazol-5-yl)benzenesulfonamide]	–
2000	–	N#Cc1cc(S(=O)(=O)Nc2nccs2)ccc1Oc1cnn(Cc2ccc(Cl)cc2)c1 [Example 331, 4-{[1-(4-chlorobenzyl)-1H-pyrazol-4-yl]oxy}-3-cyano-N-1,3-thiazol-2-ylbenzenesulfonamide]	–
–	>3000	N#Cc1cc(S(=O)(=O)Nc2ccccc2C(F)(F)F)ccc1Oc1ccccc1-c1ccccc1 [Example 111, 4-(biphenyl-2-yloxy)-3-cyano-N-[2-(trifluoromethyl)phenyl]benzenesulfonamide]	–

IC50 [2] [nM]	IC50 [3] [nM]	SMILES	also measured
11000	–	N#Cc1cc(S(=O)(=O)Nc2ncn[nH]2)ccc1Oc1ccccc1-c1ccccc1 [Example 431, 4-(biphenyl-2-yloxy)-3-cyano-N-1H-1,2,4-triazol-5-ylbenzenesulfonamide]	–
110	–	Cc1ccccc1-c1cc(Cl)ccc1Oc1ccc(S(=O)(=O)Nc2nccs2)cc1C#N [Example 692, 4-[(5-chloro-2′-methylbiphenyl-2-yl)oxy]-3-cyano-N-1,3-thiazol-2-ylbenzenesulfonamide]	–
2100	–	N#Cc1cc(S(=O)(=O)Nc2nccs2)ccc1Oc1ccc(-n2ccc(C(F)(F)F)n2)nc1 [Example 643, 3-cyano-N-1,3-thiazol-2-yl-4-({6-[3-(trifluoromethyl)-1H-pyrazol-1-yl]pyridin-3-yl}oxy)benzenesulfonamide]	–
–	–	Cn1nccc1-c1cc(Cl)ccc1Oc1ccc(S(=O)(=O)Nc2cccnn2)cc1C#N [Example 915, 4-[4-chloro-2-(1-methyl-1H-pyrazol-5-yl)phenoxy]-3-cyano-N-pyridazin-3-ylbenzenesulfonamide]	IC50 [1]: 1600 nM
39	–	O=S(=O)(Nc1nncs1)c1cc(Cl)c(Oc2ccc(Cl)cc2-c2ccn[nH]2)cc1F [Example 300, 5-chloro-4-[4-chloro-2-(1H-pyrazol-5-yl)phenoxy]-2-fluoro-N-1,3,4-thiadiazol-2-ylbenzenesulfonamide]	–
–	30900	Cc1cccc(-c2cccc(OC(F)(F)F)c2)c1Oc1ccc(S(=O)(=O)Nc2ncns2)cc1C#N [Example 37, 3-cyano-4-{[3-methyl-3′-(trifluoromethoxy)biphenyl-2-yl]oxy}-N-1,2,4-thiadiazol-5-ylbenzenesulfonamide]	–
–	450	CN(C)c1ncc(Oc2ccc(S(=O)(=O)Nc3ncns3)cc2C#N)c(-c2ccc(F)cc2)n1 [Example 8, 3-cyano-4-{[2-(dimethylamino)-4-(4-fluorophenyl)pyrimidin-5-yl]oxy}-N-1,2,4-thiadiazol-5-ylbenzenesulfonamide]	–
190	–	Nc1cccc(-c2cc(F)ccc2Oc2cc(F)c(S(=O)(=O)Nc3ncns3)cc2F)n1 [Example 407, 4-[2-(6-aminopyridin-2-yl)-4-fluorophenoxy]-2,5-difluoro-N-1,2,4-thiadiazol-5-ylbenzenesulfonamide]	–
–	450	CC(C)Oc1ccc(-c2cc(F)ccc2Oc2ccc(S(=O)(=O)Nc3nccs3)cc2C#N)cc1 [Example 157, 3-cyano-4-[(5-fluoro-4′-isopropoxybiphenyl-2-yl)oxy]-N-1,3-thiazol-2-ylbenzenesulfonamide]	–
–	–	Cn1ccc(NS(=O)(=O)c2ccc(Oc3ccc(Cl)cc3-c3ccnn3C)c(C#N)c2)n1 [Example 887, 4-[4-chloro-2-(1-methyl-1H-pyrazol-5-yl)phenoxy]-3-cyano-N-(1-methyl-1H-pyrazol-3-yl)benzenesulfonamide]	IC50 [1]: 9000 nM
530	–	Cn1ccc(-c2cc(Cl)ccc2Oc2ccc(S(=O)(=O)Nc3ncns3)cc2C#N)n1 [Example 286, 4-[4-chloro-2-(1-methyl-1H-pyrazol-3-yl)phenoxy]-3-cyano-N-1,2,4-thiadiazol-5-ylbenzenesulfonamide]	–
3300	–	Cn1nccc1-c1cc(Cl)ccc1Oc1ncc(S(=O)(=O)Nc2cscn2)cc1Cl [Example 631, 5-chloro-6-(4-chloro-2-(1-methyl-1H-pyrazol-5-yl)phenoxy)-N-(thiazol-4-yl)pyridine-3-sulfonamide]	–
–	–	Cn1nccc1-c1cc(Cl)ccc1Oc1ccc(S(=O)(=O)Nc2cccnn2)cc1Cl [Example 862, 3-chloro-4-[4-chloro-2-(1-methyl-1H-pyrazol-5-yl)phenoxy]-N-pyridazin-3-ylbenzenesulfonamide]	IC50 [1]: 240 nM
–	2000	COc1ccc(-n2cc(Oc3ccc(S(=O)(=O)Nc4ncc(Cl)s4)cc3C#N)c(C(C)C)n2)cc1 [Example 145, N-(5-chloro-1,3-thiazol-2-yl)-3-cyano-4-{[3-isopropyl-1-(4-methoxyphenyl)-1H-pyrazol-4-yl]oxy}benzenesulfonamide]	–
–	–	N#Cc1cc(S(=O)(=O)Nc2ncns2)ccc1Oc1ccc(Cl)cc1-c1cccc(CN2CCC2)c1 [Example 852, 4-{[3′-(azetidin-1-ylmethyl)-5-chlorobiphenyl-2-yl]oxy}-3-cyano-N-1,2,4-thiadiazol-5-ylbenzenesulfonamide]	IC50 [1]: 1.6 nM
–	4300	CN(C)c1ncc(Oc2ccc(S(=O)(=O)Nc3ncns3)cc2C#N)c(-c2ccccc2F)n1 [Example 14, 3-cyano-4-{[2-(dimethylamino)-4-(2-fluorophenyl)pyrimidin-5-yl]oxy}-N-1,2,4-thiadiazol-5-ylbenzenesulfonamide]	–
–	450	N#Cc1cc(S(=O)(=O)Nc2ncns2)ccc1Oc1ccc(Cl)cc1Oc1ccccc1 [Example 79, 4-(4-chloro-2-phenoxyphenoxy)-3-cyano-N-1,2,4-thiadiazol-5-ylbenzenesulfonamide]	–
–	700	Cc1cnsc1-c1ccccc1Oc1ccc(S(=O)(=O)Nc2nccs2)cc1F [Example 129, 3-fluoro-4-[2-(4-methylisothiazol-5-yl)phenoxy]-N-1,3-thiazol-2-ylbenzenesulfonamide]	–

From patent publication US8541588B2, “Sulfonamide derivatives” (Pfizer Limited, priority 2009, dated 2013)
